Patent US9809623B2, “α4β7 peptide monomer and dimer antagonists” (Protagonist Therapeutics, Inc., priority 2014, dated 2017)
Read-outs that look alike come from different tables or passages of the source. Numbered stars: 1 amine (or outer) side, 2 acyl side, 3 side chain; on linkers, the order of the positions; unused ones are H or OH. Bridge positions count the residues as written; N and C are the ends. Square brackets hold non-standard residues; d marks the D form. Peptide text beside a SMILES is read from it. I, II: the chains in the order shown. X3 = O=C(COCC(=O)NCCC(=O)[*:2])NCCC(=O)[*:1]; Bip = N[C@@H](Cc1ccc(-c2ccccc2)cc1)C(=O)O; 1Nal = N[C@@H](Cc1cccc2ccccc12)C(=O)O; 2Nal = N[C@@H](Cc1ccc2ccccc2c1)C(=O)O; Diglycolyl = O=C(COCC(=O)[*:2])[*:1]; NMeR = CN[C@@H](CCCNC(=N)N)C(=O)O; β3hE = N[C@@H](CCC(=O)O)CC(=O)O; NMeK = CN[C@@H](CCCCN)C(=O)O; Pen = CC(C)(S)[C@H](N)C(=O)O; dNMeK = CN[C@H](CCCCN)C(=O)O

Columns and labels:
α4β1 = molecular target: T1, α4β1 (Homo sapiens, UniProt P05556+P13612, DEL729-798); assay: α4β1-VCAM Competition ELISA; assay type: binding; details: Table 3-B, Selectivity (α4β1); range classes; read-out: α4β1 ELISA IC50
T1 construct: purchased R&D Systems 5668-A4
Procedure: A Nunc MaxiSorp plate was coated with rh VCAM-1/CD106 Fc chimera (R&D #862-VC) at 400 ng/well in 50 ul per well in 1×PBS and incubated overnight at 4° C. The solution was removed by shaking and then blocked with 250 ul of 1% BSA in 1×PBS per well. The wells were then incubated at room temperature for 1 hr with shaking. Each well was then washed once with wash buffer (50 mM Tris-HCl pH7.6, 100 mM NaCL, 1 mM MnCl2 or MgCl2, 0.05% Tween-20). 25 ul of serial dilutions of peptides starting at 200 μM in assay buffer (Assay buffer: 50 mM Tris-HCl pH7.6, 100 mM NaCl, 1 mM MnCl2 or MgCl2, 0.05% Tween-20) was added to each well. Additionally, 25 ul of α4β1 (R&D Systems #5668-A4) was added to each well at a fixed concentration of 120 nM. The final peptide and α4β1 concentrations were 100 μM and 60 nM, respectively. The plates were then incubated at 37° C. for 2 hr. The solution was then removed by shaking, and each well was washed three times with wash buffer. 50 ul of 9F10 antibody at 4 ug/ml (purified mouse anti-human CD49d, BD Bioscience Cat#555502) was then added to each well, and the plate was incubated at room temperature for 1 hr with shaking. The solution was again removed by shaking, and each well was washed three times with wash buffer. 50 ul of peroxidase-conjugated AffiniPure Goat anti-mouse IgG (Jackson immune research cat #115-035-003) diluted in 1:5000 in assay buffer was added to each well. The plate was incubated at room temperature for 30 min with shaking. Each well was then washed 3 times with wash buffer. 100 ul of TMB was then added to each well and closely observe during developing time. The reaction was stepped with 2N H2SO4 and absorbance was read at 450 nm.

rh integrin α4β7 = molecular target: T2, rh integrin α4β7 (Homo sapiens, UniProt P13612+P26010); assay: α4β7-MAdCAM Competition ELISA; assay type: binding; details: Table 3-B, Potency (α4β7); range classes; read-out: α4β7 ELISA IC50
T2 construct: purchased R&D Systems 5397-A30
Procedure: A nickel coated plate (Pierce #15442) was coated with rh integrin α4β7 (R&D Systems #5397-A30) at 800 ng/well and incubated at room temperature with shaking for 1 hr. The solution was then removed by shaking and blocked with assay buffer (50 mM Tris-HCl pH7.6, 150 mM NaCl, 1 mM MnCl2 or MgCl2, 0.05% Tween-20 and 0.5% BSA) at 250 ul/well. The plate was then incubated at room temperature for 1 hr. Each well was washed 3 times with wash buffer (50 mM Tris-HCl pH7.6, 100 mM NaCl, 1 mM MnCl2 or MgCl2, 0.05% Tween-20). To each well was added 25 ul of a serial dilution (3-fold dilutions in assay buffer) of peptide starting at 20 μM. 25 ul of recombinant human MAdCAM-1 (R&D Systems #6056-MC) was then added to each well at a fixed concentration 20 nM. The final starting peptide concentration was 10 μM, and the final MAdCAM-1 concentration was 10 nM. The plates were then incubated at room temperature for 1 hr to reach binding equilibrium. The wells were then washed three times with wash buffer. 50 ul of mouse anti-human IgG1-HRP (Invitrogen # A10648) diluted in 1:2000 in assay buffer was then added to each well. The wells were incubated at room temperature for 45 min with shaking. The wells were then washed 3 times with wash buffer. 100 ul of 3,3′,5,5′-Tetramethylbenzidine (TMB) were then added to each well and closely observe during development time. The reaction was stopped with 2N H2SO4 and absorbance was read at 450 nm.
TMB is a chromogenic substrate suitable for use in ELISA procedures, which utilize horseradish peroxidase conjugates. This substrate produces a soluble end product that is blue in color and can be read spectrophotometrically at 370 or 655 nm. The reaction maybe stopped with 2 M H2S04, resulting in a yellow solution that is read at 450 nm. Each tablet contains 1 mg of TMB substrate. To prepare TMB Substrate Solution, dissolve one 3,3′,5,5′-tetramethylbenzidine tablet in 1 ml of DMSO and add to 9 ml of 0.05 M Phosphate-Citrate Buffer, pH 5.0. Add 2 μl of fresh 30% hydrogen peroxide (Product No. H 1009) per 10 ml of substrate buffer solution, immediately prior to use.

α4β7 = α4β7 (Homo sapiens, UniProt P13612+P26010); assay: α4β7-MAdCAM Cell Adhesion Assay (RPMI 8866 human cells); assay type: cell-based; design: host or cells: RPMI 8866 human B lymphoblastoid cells; details: Table 3-B, Potency (α4β7); range classes; read-out: α4β7 cell (Hu) IC50
Summary of the method: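 Adhesion read-out: MTT absorbance at 570 nm minus no-cell wells, after three washes. Plates coated with rh MAdCAM-1/Fc received peptide dilutions plus 200,000 RPMI 8866 cells in Mn2+ (1 mM)-supplemented DMEM, 0.1% BSA, HEPES pH 7, incubated 30-45 min, 37 °C.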

[1] = Simulated Intestinal Fluid (SIF) Stability Assay; assay type: in vitro ADME, porcine; details: pig, pH 6.5, Table 3-B, > means experiment was stopped at that time and half life was not reached, read-out: Stabilty SIF t1/2
Summary of the method: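 Intestinal stability: percent peptide remaining over time, by LC-MS/MS peak-area ratio to internal standard, fitted to first-order decay for half-life. Conditions: 22 μM peptide, 1% pancreatin in pH 6.5 blank FASSIF, 37 °C.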

α4β7, sequence (P13612 34-1032): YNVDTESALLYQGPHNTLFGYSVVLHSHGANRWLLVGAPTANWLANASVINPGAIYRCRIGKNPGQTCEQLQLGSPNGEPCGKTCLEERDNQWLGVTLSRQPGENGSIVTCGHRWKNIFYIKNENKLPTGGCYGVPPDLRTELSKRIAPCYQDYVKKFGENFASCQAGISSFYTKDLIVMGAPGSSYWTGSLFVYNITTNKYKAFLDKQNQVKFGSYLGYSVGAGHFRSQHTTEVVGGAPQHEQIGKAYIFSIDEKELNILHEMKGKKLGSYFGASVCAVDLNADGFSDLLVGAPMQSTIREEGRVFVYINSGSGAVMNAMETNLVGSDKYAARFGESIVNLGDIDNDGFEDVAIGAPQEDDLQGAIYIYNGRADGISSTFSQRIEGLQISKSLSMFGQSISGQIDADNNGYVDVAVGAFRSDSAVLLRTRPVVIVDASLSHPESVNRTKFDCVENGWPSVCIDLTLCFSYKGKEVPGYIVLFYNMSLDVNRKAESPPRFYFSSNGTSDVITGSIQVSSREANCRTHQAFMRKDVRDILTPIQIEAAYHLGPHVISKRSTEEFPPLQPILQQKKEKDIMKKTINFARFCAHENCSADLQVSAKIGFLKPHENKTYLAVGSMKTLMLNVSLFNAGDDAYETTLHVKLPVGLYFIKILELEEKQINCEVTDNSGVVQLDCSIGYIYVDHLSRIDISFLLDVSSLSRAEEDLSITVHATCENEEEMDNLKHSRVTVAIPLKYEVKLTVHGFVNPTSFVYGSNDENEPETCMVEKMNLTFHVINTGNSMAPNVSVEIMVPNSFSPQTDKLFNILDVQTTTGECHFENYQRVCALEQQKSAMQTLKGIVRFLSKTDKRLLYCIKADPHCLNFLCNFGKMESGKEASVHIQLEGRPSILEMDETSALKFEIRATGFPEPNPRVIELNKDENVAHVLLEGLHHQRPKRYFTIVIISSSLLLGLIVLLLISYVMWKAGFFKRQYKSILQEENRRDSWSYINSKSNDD
α4β7, sequence (P26010 20-798): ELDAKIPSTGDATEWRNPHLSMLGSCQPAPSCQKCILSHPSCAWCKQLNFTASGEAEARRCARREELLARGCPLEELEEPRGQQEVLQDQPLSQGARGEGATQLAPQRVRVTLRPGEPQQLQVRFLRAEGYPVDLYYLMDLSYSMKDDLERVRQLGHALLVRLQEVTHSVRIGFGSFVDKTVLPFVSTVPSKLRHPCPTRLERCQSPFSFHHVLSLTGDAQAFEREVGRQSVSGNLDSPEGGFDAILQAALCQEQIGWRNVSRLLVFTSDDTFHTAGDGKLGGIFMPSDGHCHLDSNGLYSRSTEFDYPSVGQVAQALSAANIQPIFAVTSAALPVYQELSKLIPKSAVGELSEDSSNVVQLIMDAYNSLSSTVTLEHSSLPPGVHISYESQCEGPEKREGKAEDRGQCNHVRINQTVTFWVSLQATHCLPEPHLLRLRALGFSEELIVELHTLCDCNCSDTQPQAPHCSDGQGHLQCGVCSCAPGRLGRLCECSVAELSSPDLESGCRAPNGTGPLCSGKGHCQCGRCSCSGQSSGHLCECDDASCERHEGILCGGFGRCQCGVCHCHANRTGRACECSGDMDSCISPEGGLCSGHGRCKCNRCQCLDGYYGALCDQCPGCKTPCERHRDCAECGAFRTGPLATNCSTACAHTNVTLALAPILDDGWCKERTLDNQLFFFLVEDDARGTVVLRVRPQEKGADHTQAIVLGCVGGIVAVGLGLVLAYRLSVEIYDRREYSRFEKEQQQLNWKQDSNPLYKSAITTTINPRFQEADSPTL
T2 sequence (P13612 34-977 limits assumed): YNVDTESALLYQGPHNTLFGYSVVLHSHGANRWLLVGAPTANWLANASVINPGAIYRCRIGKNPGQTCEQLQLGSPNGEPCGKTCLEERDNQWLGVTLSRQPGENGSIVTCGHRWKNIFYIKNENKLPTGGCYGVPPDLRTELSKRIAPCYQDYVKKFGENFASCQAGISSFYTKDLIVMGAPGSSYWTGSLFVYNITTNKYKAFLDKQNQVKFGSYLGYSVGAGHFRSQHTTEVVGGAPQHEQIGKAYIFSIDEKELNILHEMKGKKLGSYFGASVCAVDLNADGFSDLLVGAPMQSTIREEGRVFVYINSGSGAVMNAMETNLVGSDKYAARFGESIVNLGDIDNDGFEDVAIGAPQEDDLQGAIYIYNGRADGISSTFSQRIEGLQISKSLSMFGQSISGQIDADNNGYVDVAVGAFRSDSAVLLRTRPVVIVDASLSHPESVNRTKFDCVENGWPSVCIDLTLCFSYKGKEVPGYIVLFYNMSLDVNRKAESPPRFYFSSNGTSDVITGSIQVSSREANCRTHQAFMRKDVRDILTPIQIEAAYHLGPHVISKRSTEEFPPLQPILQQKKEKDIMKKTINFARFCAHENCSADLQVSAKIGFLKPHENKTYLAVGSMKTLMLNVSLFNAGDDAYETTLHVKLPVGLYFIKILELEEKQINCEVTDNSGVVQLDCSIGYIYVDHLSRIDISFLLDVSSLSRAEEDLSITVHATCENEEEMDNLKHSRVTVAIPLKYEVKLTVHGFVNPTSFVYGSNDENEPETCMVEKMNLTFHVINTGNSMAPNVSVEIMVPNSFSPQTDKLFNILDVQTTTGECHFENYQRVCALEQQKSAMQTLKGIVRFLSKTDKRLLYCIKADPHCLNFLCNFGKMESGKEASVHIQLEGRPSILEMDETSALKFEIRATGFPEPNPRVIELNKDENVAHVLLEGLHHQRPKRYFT
T2 sequence (P26010 20-723 limits assumed): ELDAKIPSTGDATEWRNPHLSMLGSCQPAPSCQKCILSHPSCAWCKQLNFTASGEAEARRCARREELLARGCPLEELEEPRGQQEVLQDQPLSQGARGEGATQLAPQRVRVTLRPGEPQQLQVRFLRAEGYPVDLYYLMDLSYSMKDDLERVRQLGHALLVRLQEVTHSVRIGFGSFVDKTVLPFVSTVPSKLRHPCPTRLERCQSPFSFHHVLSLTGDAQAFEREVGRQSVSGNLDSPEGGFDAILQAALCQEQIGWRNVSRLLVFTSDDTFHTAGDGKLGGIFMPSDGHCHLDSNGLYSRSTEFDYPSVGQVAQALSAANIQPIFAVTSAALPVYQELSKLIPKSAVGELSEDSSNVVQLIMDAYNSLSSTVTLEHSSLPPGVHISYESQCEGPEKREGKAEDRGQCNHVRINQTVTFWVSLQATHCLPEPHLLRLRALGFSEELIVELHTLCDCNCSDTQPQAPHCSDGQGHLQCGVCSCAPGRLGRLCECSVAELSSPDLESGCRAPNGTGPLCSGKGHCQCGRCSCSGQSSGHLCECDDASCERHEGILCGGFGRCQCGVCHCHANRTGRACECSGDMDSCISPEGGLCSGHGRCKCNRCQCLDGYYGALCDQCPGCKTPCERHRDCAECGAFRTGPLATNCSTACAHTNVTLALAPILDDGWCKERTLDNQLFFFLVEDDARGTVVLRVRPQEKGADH
T1 sequence (P13612 34-977 limits assumed, stated change not applied): as the sequence (P13612 34-977 limits assumed) above
T1 sequence (P05556 21-728 limits assumed, stated change not applied): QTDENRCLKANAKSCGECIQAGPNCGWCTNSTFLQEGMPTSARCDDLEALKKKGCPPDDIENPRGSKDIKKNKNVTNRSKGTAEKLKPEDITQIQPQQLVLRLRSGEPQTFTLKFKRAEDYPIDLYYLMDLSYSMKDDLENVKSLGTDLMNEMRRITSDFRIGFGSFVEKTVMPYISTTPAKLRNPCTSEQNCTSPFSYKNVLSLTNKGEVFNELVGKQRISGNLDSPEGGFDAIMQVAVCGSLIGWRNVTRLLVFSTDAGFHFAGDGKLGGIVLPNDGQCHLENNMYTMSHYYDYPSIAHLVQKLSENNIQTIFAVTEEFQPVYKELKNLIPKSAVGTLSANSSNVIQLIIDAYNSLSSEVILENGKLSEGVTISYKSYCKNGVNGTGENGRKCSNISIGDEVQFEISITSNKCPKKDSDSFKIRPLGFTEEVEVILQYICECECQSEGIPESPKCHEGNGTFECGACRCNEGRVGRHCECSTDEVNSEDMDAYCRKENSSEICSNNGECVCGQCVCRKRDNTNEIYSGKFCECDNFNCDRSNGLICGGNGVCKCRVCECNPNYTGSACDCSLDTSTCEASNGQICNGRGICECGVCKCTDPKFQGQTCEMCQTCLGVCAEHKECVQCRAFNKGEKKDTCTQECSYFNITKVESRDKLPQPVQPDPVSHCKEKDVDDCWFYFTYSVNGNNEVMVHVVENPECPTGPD

Structure (SMILES) | IC50 (α4β1) [µM] | IC50 (rh integrin α4β7) [µM] | IC50 (α4β7) [µM] | half-life at 22 μM ([1]; simulated intestinal fluid (SIF) with 1% porcine pancreatin) [min] | half-life at 22 μM ([1]; simulated intestinal fluid (SIF) with porcine pancreatin) [min]
CC(=O)N[C@@H]1C(=O)N(C)[C@@H](CCCNC(=N)N)C(=O)N[C@@H](CO)C(=O)N[C@@H](CC(=O)O)C(=O)N[C@@H]([C@@H](C)O)C(=O)N[C@@H](CC(C)C)C(=O)N[C@H](C(=O)N[C@@H](Cc2cccc3ccccc23)C(=O)N[C@@H](CCC(=O)O)C(=O)N(C)[C@H](CCCCN)C(N)=O)C(C)(C)SSC1(C)C [compound 18] (Ac-[Pen][NMeR]SDTL[Pen][1Nal]E[dNMeK]-NH2; disulfide 1-7) | 0.5 to 1 | 0.01 to 0.025 | – | – | –
CC(=O)N[C@@H]1C(=O)N(C)[C@@H](CCCNC(=N)N)C(=O)N[C@@H](CO)C(=O)N[C@@H](CC(=O)O)C(=O)N[C@@H]([C@@H](C)O)C(=O)N[C@@H](CC(C)C)C(=O)N[C@H](C(=O)N[C@@H](Cc2ccc3ccccc3c2)C(=O)N[C@@H](Cc2ccc(O)cc2)C(=O)N[C@H](CCCCNC(=O)COCC(=O)NCCCC[C@@H](NC(=O)[C@H](Cc2ccc(O)cc2)NC(=O)[C@H](Cc2ccc3ccccc3c2)NC(=O)[C@H]2NC(=O)[C@H](CC(C)C)NC(=O)[C@H]([C@@H](C)O)NC(=O)[C@H](CC(=O)O)NC(=O)[C@H](CO)NC(=O)[C@H](CCCNC(=N)N)N(C)C(=O)[C@@H](NC(C)=O)C(C)(C)SSC2(C)C)C(N)=O)C(N)=O)C(C)(C)SSC1(C)C [compound 23] (I: Ac-[Pen][NMeR]SDTL[Pen][2Nal]Y[dK]-NH2 / II: Ac-[Pen][NMeR]SDTL[Pen][2Nal]Y[dK]-NH2; disulfide I:1-I:7, II:1-II:7; linker I:10-II:10 via Diglycolyl) | 0.1 to 0.5 | – | < 0.01 | < 20 | –
CC(=O)N[C@@H]1C(=O)N(C)[C@@H](CCCNC(=N)N)C(=O)N[C@@H](CO)C(=O)N[C@@H](CC(=O)O)C(=O)N[C@@H]([C@@H](C)O)C(=O)N[C@@H](CC(C)C)C(=O)N[C@H](C(=O)N[C@@H](Cc2ccc3ccccc3c2)C(=O)N[C@@H](CCC(=O)O)CC(=O)N[C@H](CCCCNC(=O)COCC(=O)NCCCC[C@@H](NC(=O)C[C@H](CCC(=O)O)NC(=O)[C@H](Cc2ccc3ccccc3c2)NC(=O)[C@H]2NC(=O)[C@H](CC(C)C)NC(=O)[C@H]([C@@H](C)O)NC(=O)[C@H](CC(=O)O)NC(=O)[C@H](CO)NC(=O)[C@H](CCCNC(=N)N)N(C)C(=O)[C@@H](NC(C)=O)C(C)(C)SSC2(C)C)C(N)=O)C(N)=O)C(C)(C)SSC1(C)C [compound 137] (I: Ac-[Pen][NMeR]SDTL[Pen][2Nal][β3hE][dK]-NH2 / II: Ac-[Pen][NMeR]SDTL[Pen][2Nal][β3hE][dK]-NH2; disulfide I:1-I:7, II:1-II:7; linker I:10-II:10 via Diglycolyl) | 1 to 10 | < 0.01 | < 0.01 | – | –
CC(=O)N[C@@H]1C(=O)N(C)[C@@H](CCCNC(=N)N)C(=O)N[C@@H](CO)C(=O)N[C@@H](CC(=O)O)C(=O)N[C@@H]([C@@H](C)O)C(=O)N[C@@H](CC(C)C)C(=O)N[C@H](C(=O)N[C@@H](Cc2ccc(-c3ccccc3)cc2)C(=O)N[C@@H](CCC(=O)O)C(=O)N[C@H](CCCCNC(=O)COCC(=O)NCCCC[C@@H](NC(=O)[C@H](CCC(=O)O)NC(=O)[C@H](Cc2ccc(-c3ccccc3)cc2)NC(=O)[C@H]2NC(=O)[C@H](CC(C)C)NC(=O)[C@H]([C@@H](C)O)NC(=O)[C@H](CC(=O)O)NC(=O)[C@H](CO)NC(=O)[C@H](CCCNC(=N)N)N(C)C(=O)[C@@H](NC(C)=O)C(C)(C)SSC2(C)C)C(N)=O)C(N)=O)C(C)(C)SSC1(C)C [compound 134] (I: Ac-[Pen][NMeR]SDTL[Pen][Bip]E[dK]-NH2 / II: Ac-[Pen][NMeR]SDTL[Pen][Bip]E[dK]-NH2; disulfide I:1-I:7, II:1-II:7; linker I:10-II:10 via Diglycolyl) | 0.1 to 0.5 | < 0.01 | < 0.01 | – | –
CC(=O)N[C@@H]1C(=O)N(C)[C@@H](CCCNC(=N)N)C(=O)N[C@@H](CO)C(=O)N[C@@H](CC(=O)O)C(=O)N[C@@H]([C@@H](C)O)C(=O)N[C@@H](CC(C)C)C(=O)N[C@H](C(=O)N[C@@H](Cc2c[nH]c3ccccc23)C(=O)N[C@@H](CCC(=O)O)CC(=O)N(C)[C@@H](CCCCNC(=O)COCC(=O)NCCCC[C@@H](C(N)=O)N(C)C(=O)C[C@H](CCC(=O)O)NC(=O)[C@H](Cc2c[nH]c3ccccc23)NC(=O)[C@H]2NC(=O)[C@H](CC(C)C)NC(=O)[C@H]([C@@H](C)O)NC(=O)[C@H](CC(=O)O)NC(=O)[C@H](CO)NC(=O)[C@H](CCCNC(=N)N)N(C)C(=O)[C@@H](NC(C)=O)C(C)(C)SSC2(C)C)C(N)=O)C(C)(C)SSC1(C)C [compound 141] (I: Ac-[Pen][NMeR]SDTL[Pen]W[β3hE][NMeK]-NH2 / II: Ac-[Pen][NMeR]SDTL[Pen]W[β3hE][NMeK]-NH2; disulfide I:1-I:7, II:1-II:7; linker I:10-II:10 via Diglycolyl) | 0.5 to 1 | < 0.01 | < 0.01 | – | –
CC(C)C[C@@H]1NC(=O)[C@H]([C@@H](C)O)NC(=O)[C@H](CC(=O)O)NC(=O)[C@H](CO)NC(=O)[C@H](CCCNC(=N)N)N(C)C(=O)[C@@H](NC(=O)CCNC(=O)COCC(=O)NCCC(=O)N[C@@H]2C(=O)N(C)[C@@H](CCCNC(=N)N)C(=O)N[C@@H](CO)C(=O)N[C@@H](CC(=O)O)C(=O)N[C@@H]([C@@H](C)O)C(=O)N[C@@H](CC(C)C)C(=O)N[C@H](C(=O)N[C@@H](Cc3c[nH]c4ccccc34)C(=O)N[C@@H](CCC(=O)O)C(N)=O)C(C)(C)SSC2(C)C)C(C)(C)SSC(C)(C)[C@@H](C(=O)N[C@@H](Cc2c[nH]c3ccccc23)C(=O)N[C@@H](CCC(=O)O)C(N)=O)NC1=O [compound 54] (I: [Pen][NMeR]SDTL[Pen]WE-NH2 / II: [Pen][NMeR]SDTL[Pen]WE-NH2; disulfide I:1-I:7, II:1-II:7; linker I:N-II:N via X3) | 0.1 to 0.5 | – | 0.025 to 0.05 | – | 32
